Structures can show the parent of a compound that is named as a salt.
Tests used:
[1] = Karl-Fisher (coulometric) water content of salts; assay type: physicochemical
Method: (§1) The salts were examined for hygroscopicity at relative humidities (RH) of 27%, 35%, 65% and 80% and are depicted in Table IV. The samples were subjected to vacuum initially to establish a reference point for the RH data. The amount of water contained in each salt was also determined by Karl-Fisher (coulometric).

[2] = Hygroscopicity of salts at relative humidities; assay type: physicochemical; details: for Hygroscopicity, RH 27%: 27% RH; for Hygroscopicity, RH 35%: 35% RH; for Hygroscopicity, RH 65%: 65% RH; for Hygroscopicity, RH 80%: 80% RH
Method: as §1

[3] = physchem; assay type: physicochemical; details: for pH (saturated aq Solution): saturated aqueous solution
Method: The aqueous solubility of each salt was determined by UV analysis (Table II) and compared. […] The high pH observed with the succinate and acetate salt indicated the presence of untitrated free base.

[4] = Thermogravimetric analysis (TGA) of salts; assay type: physicochemical; details: for TGA weight loss 20-100° C.: heated 20-100° C.; for TGA weight loss 100-200° C.: heated 100-200° C.
Method: Each salt was analyzed by TGA, DSC and Mettler hot stage microscopy and compared (Table III). […] The samples were also examined by hot stage microscopy using a Mettler hot stage.

[5] = biological target: Protein Kinase C; experiment: Protein kinase C inhibitor activity / selectivity (Calcium Calmodulin Dependent Protein Kinase, Casein Protein Kinase II, cAMP-Dependent Protein Kinase Catalytic Subunit and Protein-Tyrosine Kinase assays); assay type: biochemical
Method: As previously stated, the compound of the present invention are active as selective Protein Kinase C inhibitors. The activity of compound is disclosed in Heath et al., EP 0 657 458, published on Jun. 14, 1995. The activity was determined in the Calcium Calmodulin Dependent Protein Kinase Assay, Casein Protein Kinase II assay, cAMP-Dependent Protein Kinase Catalytic Subunit assay and the Protein-Tyrosine Kinase assay. […] Conditions recognized in the art include: diabetes mellitus and its complications (including retinopathy, neuropathy and nephropathy), ischemia, inflammation, central nervous system disorders, cardiovascular disease, Alzheimer's disease, dermatological disease and cancer.

[6] = Oral bioavailability of HCl and mesylate salts in dogs, single 20 mg/kg dose, cross-over; assay type: in vivo, Male Beagle Dogs
Method: Because the hydrochloride salt is the most common pharmaceutical salt and is specifically disclosed in Heath et al., EP 0 657 458, published on Jun. 14, 1995 (Example 5), a biological comparison of the mesylate and HCl salt was carried out. […] The bioavailability of the salt forms was measured in four Male Beagle Dogs by orally administering a single 20 mg/kg dose of the HCl and the claimed mesylate salt in a 10% acacia suspension. One week washout period was allowed between doses. Doses were administered in a cross-over design (2 dogs/salt/study dog). The plasma concentration of the active compound as well as an active metabolite was monitored. […] This represents an approximately 260% increase in plasma concentration of the compound and the metabolite.
The plasma concentration of the compound as well as the metabolite was also plotted as a function of time during the study. The ratio of the area under the concentration curve (AUC) represents a measure of bioavailability of the compound to the patient. The AUC ratio for the HCl salt and the claimed mesylate was calculated and is depicted in Table VI.

| SMILES | K. F. (Karl-Fisher water) [1] [%] | Hygroscopicity, RH 27% [2] [wt % initial] | Hygroscopicity, RH 35% [2] [wt % initial] | Hygroscopicity, RH 65% [2] [wt % initial] | Hygroscopicity, RH 80% [2] [wt % initial] | Hygroscopicity, Vacuum [2] [wt % initial] | pH (saturated aq Solution) [3] | Aqueous solubility (base) ([3]; water) [μg base/mL H2 O] | Aqueous solubility (salt) ([3]; water) [μg salt/mL H2 O] | TGA weight loss 20-100° C. [4] [% wt loss] | TGA weight loss 100-200° C. [4] [% wt loss] | other results |
| --- | --- | --- | --- | --- | --- | --- | --- | --- | --- | --- | --- | --- |
| CN(C)C[C@@H]1CCn2cc(c3ccccc32)C2=C(C(=O)NC2=O)c2cn(c3ccccc23)CCO1 [Acetate] | 0.3 | 98.6 | 99.2 | 100.2 | 100.6 | 99.4 | 7.80 | 0.9 | 1 | 0.77 | 1.44 | – |
| CN(C)C[C@@H]1CCn2cc(c3ccccc32)C2=C(C(=O)NC2=O)c2cn(c3ccccc23)CCO1 [HCl] | 1.3 | 98.2 | 99.3 | 100.4 | 100.6 | 98.7 | 4.98 | 249 | – | 1.42 | 0.9 | aqueous solubility ([3]; water): 268 µg/mL |
| CN(C)C[C@@H]1CCn2cc(c3ccccc32)C2=C(C(=O)NC2=O)c2cn(c3ccccc23)CCO1 [Mesylate, (S)-13-[(dimethylamino)methyl]-10,11,14,15-tetrahydro-4,9:16,21-dimetheno-1H, 13H-dibenzo[E,K]pyrrolo[3,4-H][1,4,13]oxadiazacyclohexadecine-1,3(2H)-dione] | 3.6 | 98.5 | 99.4 | 100.7 | 104.4 | 99.0 | 4.69 | 1460 | – | 3.97 | – | effect of chloride on aqueous solubility [3]: drops markedly with the addition of chloride; effect of pH on aqueous solubility [3]: drops markedly at either higher or lower pH; pH of optimal aqueous solubility [3]: 4.0 to 5.0 pH; aqueous solubility ([3]; water): 1760 µg/mL; solubility ([3]; water, pH 4.5, water, aqueous solubility at most preferred pH): 2250 µg/mL; IC50 [5]: < 10 µM; activity and isozyme selectivity [5]: active and isozyme selective; increase in plasma concentration of the compound and the metabolite ([6]; dog, in vivo, po, 20 mg/kg): approximately 260%; plasma concentrations of compound and metabolite vs HCl salt ([6]; each dog, equivalent oral dose): Higher plasma concentrations |
| CN(C)C[C@@H]1CCn2cc(c3ccccc32)C2=C(C(=O)NC2=O)c2cn(c3ccccc23)CCO1 [Phosphate] | 4.6 | 98.6 | 102.6 | 105.5 | 106.6 | 98.2 | 3.78 | 609 | 736 | 5.50 | – | hygroscopicity ranking ([2]; vacuum to 80% RH): most hygroscopic; TGA weight loss 20-100° C. ([4]; listed as phosphate): 5.50 % wt loss |
| CN(C)C[C@@H]1CCn2cc(c3ccccc32)C2=C(C(=O)NC2=O)c2cn(c3ccccc23)CCO1 [Succinate] | 0.2 | 98.5 | 99.1 | 100.0 | 100.5 | 99.3 | 7.72 | 0.4 | 0.5 | 0.73 | 1.90 | – |
| CN(C)C[C@@H]1CCn2cc(c3ccccc32)C2=C(C(=O)NC2=O)c2cn(c3ccccc23)CCO1 [Sulfate] | 4.9 | 98.4 | 99.8 | 100.9 | 101.9 | 98.9 | 2.57 | 12 | 14 | 5.50 | – | TGA weight loss 20-100° C. ([4]; listed as sulfate): 5.50 % wt loss |
| CN(C)C[C@@H]1CCn2cc(c3ccccc32)C2=C(C(=O)NC2=O)c2cn(c3ccccc23)CCO1 [Tartrate] | 5.1 | 98.2 | 101.3 | 103.8 | 105.4 | 97.9 | 3.77 | 54 | 71 | 5.50 | – | TGA weight loss 20-100° C. ([4]; listed as tartrate): 5.50 % wt loss |

— US5710145A, “Protein kinase C inhibitor” (priority 1996, dated 1998)
